Assay results as given in ChEMBL document CHEMBL4130475, “Lorneic Acid Analogues from an Endophytic Actinomycete” (J Nat Prod, 2017).

Key:
[1] = molecular target: T1, Tyrosinase (Agaricus bisporus) (UniProt O42713); assay: Inhibition of mushroom tyrosinase at 0.18 mM using L-DOPA as substrate after 5 mins by spectrophotometric analysis relative to control
T1 sequence (whole entry): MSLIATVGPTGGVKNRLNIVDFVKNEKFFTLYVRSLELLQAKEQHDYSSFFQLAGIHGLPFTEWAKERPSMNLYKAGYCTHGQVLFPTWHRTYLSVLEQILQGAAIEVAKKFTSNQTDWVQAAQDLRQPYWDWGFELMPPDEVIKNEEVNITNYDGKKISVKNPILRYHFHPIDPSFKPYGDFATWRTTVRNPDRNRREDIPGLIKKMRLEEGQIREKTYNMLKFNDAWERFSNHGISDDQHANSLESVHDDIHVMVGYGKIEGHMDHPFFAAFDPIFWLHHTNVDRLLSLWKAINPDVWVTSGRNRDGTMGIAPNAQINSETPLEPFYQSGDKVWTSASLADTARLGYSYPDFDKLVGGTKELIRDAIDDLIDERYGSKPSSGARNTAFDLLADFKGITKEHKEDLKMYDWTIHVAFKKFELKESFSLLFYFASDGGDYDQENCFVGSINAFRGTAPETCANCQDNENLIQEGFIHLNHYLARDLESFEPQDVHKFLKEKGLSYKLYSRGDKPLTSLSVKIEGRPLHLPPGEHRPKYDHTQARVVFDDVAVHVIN

[2] = molecular target: T1, Tyrosinase (Agaricus bisporus); assay: Inhibition of mushroom tyrosinase at 0.19 mM using L-DOPA as substrate after 5 mins by spectrophotometric analysis relative to control
[3] = molecular target: T1, Tyrosinase (Agaricus bisporus); assay: Inhibition of mushroom tyrosinase at 0.11 mM using L-DOPA as substrate after 5 mins by spectrophotometric analysis relative to control

## CCCC(O)c1cc(C)ccc1/C=C/CCCC(=O)O (stereo not drawn)
[1]
  inhibition: 27%

## CC/C=C/c1cc(C)ccc1/C=C/CCCC(=O)O
[2]
  inhibition: 12.9%

## CCCC(SSCC(NC(C)=O)C(=O)O)c1cc(C)ccc1/C=C/CCCC(=O)O (stereo not drawn)
[3]
  inhibition: 18.9%
